From patent publication US10787447B2, “Pharmaceutical compounds” (Heptares Therapeutics Limited, priority 2018, dated 2020)
Like-named read-outs stand apart in the source and are kept apart here.

Experiments:
Format in all cases: cell-based
[1] = target: T1, human muscarinic M1 receptor (Homo sapiens, UniProt P11229); assay: Alphascreen Surefire phospho-ERK1/2 functional assay, M1; settings: for % Emax cf. ACh, M1: Emax relative to ACh; for EC50: phospho-ERK1/2
T1 sequence (P11229 1-460): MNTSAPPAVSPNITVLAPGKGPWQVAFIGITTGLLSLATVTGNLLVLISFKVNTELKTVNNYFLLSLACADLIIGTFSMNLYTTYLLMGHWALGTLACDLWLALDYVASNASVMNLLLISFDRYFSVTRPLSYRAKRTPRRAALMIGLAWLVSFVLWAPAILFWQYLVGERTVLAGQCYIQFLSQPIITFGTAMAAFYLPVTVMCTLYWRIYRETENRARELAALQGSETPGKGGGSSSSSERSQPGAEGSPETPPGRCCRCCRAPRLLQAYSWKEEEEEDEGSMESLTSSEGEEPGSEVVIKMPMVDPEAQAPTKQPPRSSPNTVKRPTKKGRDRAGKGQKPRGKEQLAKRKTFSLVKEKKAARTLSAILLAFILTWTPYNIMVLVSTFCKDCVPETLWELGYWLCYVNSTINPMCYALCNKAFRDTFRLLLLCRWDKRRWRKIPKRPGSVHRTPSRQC
Summary of the method: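 Stably transfected CHO cells, serum-starved overnight, then exposed to agonist for 5 min at 37 °C. Cells lysed and phospho-ERK1/2 measured by AlphaScreen SureFire.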

[2] = target: T2, human muscarinic M2 receptor (Homo sapiens, UniProt P08172); assay: Alphascreen Surefire phospho-ERK1/2 functional assay, M2; settings: for EC50: phospho-ERK1/2
T2 sequence (P08172 1-466): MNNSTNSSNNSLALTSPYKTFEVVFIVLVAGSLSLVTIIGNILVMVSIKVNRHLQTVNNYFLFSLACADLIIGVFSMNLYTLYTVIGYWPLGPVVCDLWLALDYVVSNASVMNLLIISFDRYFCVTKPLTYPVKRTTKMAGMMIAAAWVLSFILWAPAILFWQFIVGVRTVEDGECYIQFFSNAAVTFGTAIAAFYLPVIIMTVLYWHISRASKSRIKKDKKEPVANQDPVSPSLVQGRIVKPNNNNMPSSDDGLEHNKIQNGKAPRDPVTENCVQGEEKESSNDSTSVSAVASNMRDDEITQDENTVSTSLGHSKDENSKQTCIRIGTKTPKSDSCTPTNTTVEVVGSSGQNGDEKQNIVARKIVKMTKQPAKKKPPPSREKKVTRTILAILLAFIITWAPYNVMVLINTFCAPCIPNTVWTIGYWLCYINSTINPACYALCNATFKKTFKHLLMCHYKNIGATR
Summary of the method: (§1)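 CHO cells stably expressing human M1, M2, M3 or M4 receptor, serum-starved overnight, then stimulated with agonist for 5 min at 37 °C. Cells lysed for 15 min and phospho-ERK1/2 detected in the lysate by AlphaScreen SureFire.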

[3] = target: T3, human muscarinic M3 receptor (Homo sapiens, UniProt P20309); assay: Alphascreen Surefire phospho-ERK1/2 functional assay, M3; settings: for % Emax cf. ACh, M3 / Emax: Emax relative to ACh; for EC50: phospho-ERK1/2; for Emax: CHO, read-out: % Emax cf. ACh, M3, CHO cells stably expressing human M3
T3 construct: expressed in transfected cells
T3 sequence (P20309 whole entry): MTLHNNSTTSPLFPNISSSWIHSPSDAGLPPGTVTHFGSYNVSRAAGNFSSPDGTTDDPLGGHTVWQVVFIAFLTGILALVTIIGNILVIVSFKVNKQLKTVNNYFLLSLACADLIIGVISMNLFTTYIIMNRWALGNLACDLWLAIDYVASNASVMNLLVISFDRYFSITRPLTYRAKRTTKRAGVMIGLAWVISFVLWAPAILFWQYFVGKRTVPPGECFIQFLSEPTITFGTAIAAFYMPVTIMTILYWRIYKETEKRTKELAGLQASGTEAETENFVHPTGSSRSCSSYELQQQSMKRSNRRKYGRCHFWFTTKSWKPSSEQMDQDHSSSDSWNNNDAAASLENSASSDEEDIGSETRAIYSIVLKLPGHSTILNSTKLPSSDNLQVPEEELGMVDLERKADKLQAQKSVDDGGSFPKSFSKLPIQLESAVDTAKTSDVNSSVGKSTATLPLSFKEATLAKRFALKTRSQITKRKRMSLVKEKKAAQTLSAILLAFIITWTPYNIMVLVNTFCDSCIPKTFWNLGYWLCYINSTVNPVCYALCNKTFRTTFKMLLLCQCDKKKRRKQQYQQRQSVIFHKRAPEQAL
Summary of the method: as §1

[4] = target: T4, human muscarinic M4 receptor (Homo sapiens, UniProt P08173); assay: Alphascreen Surefire phospho-ERK1/2 functional assay, M4; settings: for % Emax cf. ACh, M4: Emax relative to ACh; for EC50: phospho-ERK1/2
T4 sequence (P08173 1-479): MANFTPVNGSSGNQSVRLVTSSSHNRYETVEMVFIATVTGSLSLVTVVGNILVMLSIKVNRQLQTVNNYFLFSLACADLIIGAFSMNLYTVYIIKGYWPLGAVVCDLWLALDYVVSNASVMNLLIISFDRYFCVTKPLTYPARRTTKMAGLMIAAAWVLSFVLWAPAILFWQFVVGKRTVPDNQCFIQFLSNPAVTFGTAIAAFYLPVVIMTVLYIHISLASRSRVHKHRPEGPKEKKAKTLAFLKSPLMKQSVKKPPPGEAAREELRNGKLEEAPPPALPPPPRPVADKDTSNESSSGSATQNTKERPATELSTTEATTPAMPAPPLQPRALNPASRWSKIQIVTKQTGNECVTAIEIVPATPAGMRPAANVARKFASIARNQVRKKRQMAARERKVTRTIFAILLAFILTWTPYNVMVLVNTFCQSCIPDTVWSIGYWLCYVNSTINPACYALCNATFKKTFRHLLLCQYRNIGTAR
Summary of the method: as §1

[5] = pEC50 M1, CHO cells stably expressing human M1
[6] = pEC50 M2, CHO cells stably expressing human M2
[7] = pEC50 M3, CHO cells stably expressing human M3
[8] = pEC50 M4, CHO cells stably expressing human M4
[9] = CHO cells stably expressing human M3
[10] = CHO cells stably expressing human M1

## CCOC(=O)N1C2COCC1CC(N1CCC(N3CCCCCC3=O)CC1)C2 (single isomer, unassigned) [Example 6-7 Isomer 1, Ethyl 7-[4-(2-oxoazepan-1-yl)piperidin-1-yl]-3-oxa-9-azabicyclo[3.3.1]nonane-9-carboxylate]
[1]; CHO cells stably expressing human M1, listed as 6-7 Isomer 1
  % Emax cf. ACh, M1: 111%
[1]; [5]
  EC50: 646 nM
[2]; CHO cells stably expressing human M2, Emax relative to ACh, listed as 6-7 Isomer 1
  % Emax cf. ACh, M2: 87%
[2]; [6]
  EC50: 1020 nM
[3]; CHO cells stably expressing human M3, listed as 6-7 Isomer 1
  % Emax cf. ACh, M3: 28%
[3]; [7]
  EC50: > 20000 nM
[4]; CHO cells stably expressing human M4, listed as 6-7 Isomer 1
  % Emax cf. ACh, M4: 105%
[4]; [8]
  EC50: 75.9 nM

## CCOC(=O)N1C2COCC1CC(N1CCC(n3cc(Cl)cn3)CC1)C2 (single isomer, unassigned) [Example 1-2 Isomer 1, Ethyl 7-[4-(4-chloro-1H-pyrazol-1-yl)piperidin-1-yl]-3-oxa-9-azabicyclo[3.3.1]nonane-9-carboxylate]
[1]; CHO cells stably expressing human M1, listed as 1-2 Isomer 1
  % Emax cf. ACh, M1: 96%
[1]; [5]
  EC50: 15.1 nM
[2]; CHO cells stably expressing human M2, Emax relative to ACh, listed as 1-2 Isomer 1
  % Emax cf. ACh, M2: 69%
[2]; [6]
  EC50: 87.1 nM
[3]; [9]
  % Emax cf. ACh, M3: 2%
[4]; CHO cells stably expressing human M4, listed as 1-2 Isomer 1
  % Emax cf. ACh, M4: 78%
[4]; [8]
  EC50: 2.88 nM

## CCOC(=O)N1C2COCC1CC(N1CCC3(CC1)CNC(=O)O3)C2 (single isomer, unassigned) [Example 5-3 Isomer 2, Ethyl 7-(2-oxo-1-oxa-3,8-diazaspiro[4.5]dec-8-yl)-3-oxa-9-azabicyclo[3.3.1]nonane-9-carboxylate]
[1]; [10]
  % Emax cf. ACh, M1: 73%
[1]; CHO cells stably expressing human M1, read-out: pEC50 M1 (converted)
  EC50: 126 nM
[2]; CHO cells stably expressing human M2, read-out: pEC50 M2 (converted)
  EC50: > 20000 nM
[2]; CHO, read-out: % Emax cf. ACh, M2, CHO cells stably expressing human M2, Emax relative to ACh
  Emax: 4%
[3]; CHO cells stably expressing human M3, read-out: pEC50 M3 (converted)
  EC50: > 20000 nM
[3]
  Emax: 5%
[4]; CHO cells stably expressing human M4
  % Emax cf. ACh, M4: 17%
[4]; CHO cells stably expressing human M4, read-out: pEC50 M4 (converted)
  EC50: > 20000 nM

## CCOC(=O)N1C2COCC1CC(N1CCC3(CC1)CC3)C2 (single isomer, unassigned) [Example 5-1 Isomer 2, Ethyl 7-(6-azaspiro[2.5]oct-6-yl)-3-oxa-9-azabicyclo[3.3.1]nonane-9-carboxylate]
[1]; [10]
  % Emax cf. ACh, M1: 66%
[1]; [5]
  EC50: 141 nM
[2]; CHO cells stably expressing human M2, Emax relative to ACh
  % Emax cf. ACh, M2: 13%
[3]; CHO cells stably expressing human M3, listed as 5-1 Isomer 2
  % Emax cf. ACh, M3: 8%
[4]; CHO cells stably expressing human M4, listed as 5-1 Isomer 2
  % Emax cf. ACh, M4: 41%
[4]; [8]
  EC50: 33.9 nM

## CCOC(=O)N1C2COCC1CC(N1CCC3(CC1)OC(=O)NC3CC)C2 (single isomer, unassigned) [Example 5-4 Isomer 2b, Ethyl 7-(4-ethyl-2-oxo-1-oxa-3,8-diazaspiro[4.5]dec-8-yl)-3-oxa-9-azabicyclo[3.3.1]nonane-9-carboxylate]
[1]; CHO cells stably expressing human M1, listed as 5-4 Isomer 2b
  % Emax cf. ACh, M1: 25%
[1]; [5]
  EC50: 74.1 nM
[2]; CHO cells stably expressing human M2, Emax relative to ACh, listed as 5-4 Isomer 2b
  % Emax cf. ACh, M2: 1%
[3]; [9]
  % Emax cf. ACh, M3: 4%
[4]; CHO cells stably expressing human M4, listed as 5-4 Isomer 2b
  % Emax cf. ACh, M4: 20%
[4]; [8]
  EC50: > 20000 nM

## CCOC(=O)N1C2COCC1CC(N1CCC(c3ccc[nH]c3=O)CC1)C2 (single isomer, unassigned) [Example 2-3 Isomer 1, Ethyl 7-[4-(2-oxo-1,2-dihydropyridin-3-yl)piperidin-1-yl]-3-oxa-9-azabicyclo[3.3.1]nonane-9-carboxylate]
[1]; CHO cells stably expressing human M1, listed as 2-3 Isomer 1
  % Emax cf. ACh, M1: 77%
[1]; [5]
  EC50: 195 nM
[2]; CHO cells stably expressing human M2, Emax relative to ACh, listed as 2-3 Isomer 1
  % Emax cf. ACh, M2: 45%
[2]; [6]
  EC50: 288 nM
[3]
  Emax: 9%
[3]; [7]
  EC50: > 20000 nM
[4]; CHO cells stably expressing human M4, listed as 2-3 Isomer 1
  % Emax cf. ACh, M4: 99%
[4]; [8]
  EC50: 6.46 nM

## CCOC(=O)N1C2COCC1CC(N1CCC3(CC1)OC(=O)NC3CC)C2 (single isomer, unassigned) [Example 5-4 Isomer 1a, Ethyl 7-(4-ethyl-2-oxo-1-oxa-3,8-diazaspiro[4.5]dec-8-yl)-3-oxa-9-azabicyclo[3.3.1]nonane-9-carboxylate]
[1]; CHO cells stably expressing human M1, listed as 5-4 Isomer 1a
  % Emax cf. ACh, M1: 76%
[1]; [5]
  EC50: 1480 nM
[2]; CHO cells stably expressing human M2, Emax relative to ACh, listed as 5-4 Isomer 1a
  % Emax cf. ACh, M2: 3%
[2]; [6]
  EC50: > 20000 nM
[3]
  Emax: 2%
[3]; [7]
  EC50: > 20000 nM
[4]; CHO cells stably expressing human M4, listed as 5-4 Isomer 1a
  % Emax cf. ACh, M4: 81%
[4]; [8]
  EC50: 145 nM

## CCOC(=O)N1C2COCC1CC(N1CCC(N3CC(F)(F)C[C@@H]3CO)CC1)C2 (single isomer, unassigned) [Example 4-1 Isomer 1]
[1]; CHO cells stably expressing human M1, listed as 4-1 Isomer 1
  % Emax cf. ACh, M1: 108%
[1]; [5]
  EC50: 155 nM
[2]; CHO cells stably expressing human M2, Emax relative to ACh, listed as 4-1 Isomer 1
  % Emax cf. ACh, M2: 87%
[2]; [6]
  EC50: 251 nM
[3]; CHO cells stably expressing human M3, listed as 4-1 Isomer 1
  % Emax cf. ACh, M3: 11%
[3]; [7]
  EC50: > 20000 nM
[4]; CHO cells stably expressing human M4, listed as 4-1 Isomer 1
  % Emax cf. ACh, M4: 114%
[4]; [8]
  EC50: 30.9 nM
